Results: patent publication US12435061B2 (priority 2020, dated 2025)
In brackets after ≈: the same amount, converted by molar mass. Several values for one entry are separate records, joined by “and”; a condition that tells them apart may be missing. Equal entries are not always repeated. Where two headings read alike, the source gives them in different places.

Assays:
hTRPV3 [1] = target: T1, hTRPV3 (Homo sapiens (Human), UniProt Q8NET8); assay: Whole-cell patch clamp, hTRPV3 Phase 1 / Phase 2 currents; format: cell-based
Method in brief: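 Currents are activated by 20 μM 2-APB or by perfusate at 28 °C or warmer, in Ringer's solution, and quantified at ±80 mV.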

rat (r) TRPV3 = rat (r) TRPV3 (Rattus norvegicus, UniProt E9PU00); assay: Whole-cell patch clamp, rTRPV3 Phase 1 / Phase 2 currents; format: cell-based
Text: Whole-cell patch clamp experiments permit the detection of currents through the TRPV3 channel in the cell line described above. A glass electrode is brought into contact with a single cell and the membrane is then ruptured, permitting control of the voltage of the cell membrane and measurement of currents flowing across the membrane using the amplifier attached to the electrode. A perfusion system permits control of the extracellular solution, including the addition of blockers and activators of the current. The current can be activated by heating this solution to 28° C. or warmer or by addition of 20 μM 2-APB to the solution.
TRPV3 cells were induced 20-48 hours, removed from growth plates, and replated at low density (to attain good single-cell physical separation) on glass coverslips for measurement. In some cases, cells were grown in low density overnight on glass coverslips. Patch clamp recordings were made in the whole-cell mode with a holding potential of −40 mV. Every 5 seconds, a voltage ramp was applied from −120 to +100 mV, 400 ms in duration. Currents elicited were quantified at −80 mV and +80 mV. The internal solution consisted of 140 mM cesium aspartate, 10 mM EGTA, 2.27 mM MgCl2, 1.91 mM CaCl2) and 10 mM HEPES, pH to 7.2 with KOH; with 50 nM calculated free […]. External solution was Ringer's solution described above. Upon addition of 2-APB or upon heating of the extraceullar solution as described above, TRPV3 current was induced only in TRPV3-expressing cells and not in parental HEK293 TREx cells. […] Removal of the stimulus caused most of the current to go away, and inhibitor addition could still inhibit this current.
In Tables 3 and 4, Phase 1 refers to Phase 1 current for human (h) TRPV3 or rat (r) TRPV3, and Phase 2 refers to Phase 2 current for human (h) TRPV3 or rat (r) TRPV3. The hTRPV3 and rTRPV3 assays were performed as described herein. hERG refers to the inhibition the human ERG (hERG) channel. NaV1.5, refers to the pore forming aL-subunit of the voltage-dependent cardiac Na(+) channel and is an integral membrane protein involved in the initiation and conduction of action potentials. hTRPV3 HAMA IC50 refers to the IC50 of TRPV3 cells stably expressed in TRex-293 cells. Solubility Ringer refers to the compounds' solubility in Ringer's solution. LM T1/2 refers to liver microsome half-lives in either rat or human liver microsomes. FLIPR IC50 refers to the IC50 of the test compounds against recombinant hTRPV3 cells.

hTRPV3 [2] = target: T1, hTRPV3; assay: hTRPV3 HAMA IC50 assay (Hamamatsu FDSS6000 calcium flux, TRex-293 cells); details: 5 min
Description: IC50s were calculated using CBIS from ChemInnovation (San Diego).

[3] = Aqueous solubility assay in Normal Ringer Solution; details: for solubility at 40 min: saline or isotonic, kinetic from dmso stock
Description: Following vortex and incubation for a sufficient time (e.g. 40 minutes at room temperature), solutions were filtered, quenched with acetonitrile, and analyzed by Liquid Chromotography. Solubility Limits were determined by comparison to a standard curve.

[4] = Metabolic Stability assay, human liver microsomes; format: in vitro ADME
Description: Metabolic Stability assay: The metabolic stability was determined by adding compound dissolved in DMSO to human or rat, liver microsomes. Briefly, assays were run with a starting concentration of 1 μM test article. The reaction was started by addition of NADPH regeneration components at 37° C. at which time an aliquot was immediately quenched in ice-cold acetonitrile/MeOH/H2O solution. Reaction mixture was incubated at 37° C. on a shaker, and additional aliquots were taken at 7, 15, 30 and 60 minutes. Following quench and centrifugation, samples were analyzed on HPLC/MS/MS.

[5] = Metabolic Stability assay, rat liver microsomes; format: in vitro ADME
Method in brief: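 Reactions in human or rat liver microsomes at 37 °C were started with an NADPH-regenerating system, using 1 μM compound initially. Samples were taken at 0, 7, 15, 30 and 60 min, quenched in ice-cold acetonitrile/MeOH/H2O, and quantified by HPLC/MS/MS.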

human hERG channels = human hERG channels (Homo sapiens (Human), UniProt Q12809); assay: hERG assay (patch clamp, CHO cells); format: cell-based
Description: hERG assay: Briefly, cells from a stable CHO cell line expressing human hERG channels were plated onto glass coverslips and used in patch clamp assays on the same day. After seal formation and break-in to whole-cell configuration, voltage steps were applied as follows: from the holding potential of −90 mV, a 2 second long step to +40 mV was applied, followed by a 1.5 second step to −50 mV. These steps were applied once every 5 seconds. The hERG current was measured at the peak of the outward tail current at −50 mV. The pipette solution was potassium aspartate based and the external solution was normal Ringer's.
All currents were recorded in whole-cell configuration using an Axopatch 200B controlled by pClamp 10 software (Molecular Devices). In each cell, when the current stabilized, the compound was perfused locally onto the cell. Two to three concentrations of the test compound were applied to each cell. At the end of compound testing, 10 μM verapamil was applied to completely block hERG currents and assess leak current.
Data were analyzed by computing the degree of current block after compound addition compared with the unblocked current amplitude. The unblocked current was predicted from the interpolation between the current amplitude prior to compound addition and after compound washout. The resulting percent block at each concentration was used to make a concentration-response plot and fitted to the Hill equation: percent block=minimum block+(maximum block-minimum block)/(1+10^(Hill slope*(log IC50−concentration))).

[6] = Phase 1 current, inward, whole-cell patch clamp, read-out: hTRPV3 Patch P1 Inwd
[7] = Phase 1 current, read-out: hTRPV3 (nM) (Phase 1)
[8] = Phase 1 current, read-out: rTRPV3 (nM) (Phase 1)
[9] = Phase 2 current, read-out: rTRPV3 (nM) (Phase 2)
[10] = Phase 2 current, read-out: hTRPV3 (nM) (Phase 2)
[11] = Phase 1 current, human TRPV3, read-out: hTRPV3 (nM) Phase 1

rat (r) TRPV3, sequence (E9PU00 1-791): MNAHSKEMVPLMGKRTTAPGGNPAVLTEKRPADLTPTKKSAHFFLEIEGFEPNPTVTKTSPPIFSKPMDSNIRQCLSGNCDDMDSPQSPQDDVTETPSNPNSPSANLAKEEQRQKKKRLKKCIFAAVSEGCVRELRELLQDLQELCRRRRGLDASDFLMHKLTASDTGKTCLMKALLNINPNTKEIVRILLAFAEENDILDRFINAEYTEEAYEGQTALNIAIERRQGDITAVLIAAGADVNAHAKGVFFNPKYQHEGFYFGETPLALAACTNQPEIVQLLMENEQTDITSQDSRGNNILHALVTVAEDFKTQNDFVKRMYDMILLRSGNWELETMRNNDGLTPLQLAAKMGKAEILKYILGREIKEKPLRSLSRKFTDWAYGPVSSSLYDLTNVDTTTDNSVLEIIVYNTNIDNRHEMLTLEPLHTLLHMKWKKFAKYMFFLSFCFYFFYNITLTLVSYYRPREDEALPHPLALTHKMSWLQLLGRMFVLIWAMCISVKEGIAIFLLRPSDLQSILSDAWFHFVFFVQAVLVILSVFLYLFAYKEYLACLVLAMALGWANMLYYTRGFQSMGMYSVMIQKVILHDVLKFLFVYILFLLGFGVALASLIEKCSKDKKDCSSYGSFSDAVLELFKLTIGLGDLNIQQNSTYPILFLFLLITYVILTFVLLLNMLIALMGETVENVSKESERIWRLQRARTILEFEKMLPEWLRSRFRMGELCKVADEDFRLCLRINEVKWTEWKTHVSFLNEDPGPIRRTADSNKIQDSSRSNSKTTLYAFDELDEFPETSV
human hERG channels, sequence (Q12809 whole entry): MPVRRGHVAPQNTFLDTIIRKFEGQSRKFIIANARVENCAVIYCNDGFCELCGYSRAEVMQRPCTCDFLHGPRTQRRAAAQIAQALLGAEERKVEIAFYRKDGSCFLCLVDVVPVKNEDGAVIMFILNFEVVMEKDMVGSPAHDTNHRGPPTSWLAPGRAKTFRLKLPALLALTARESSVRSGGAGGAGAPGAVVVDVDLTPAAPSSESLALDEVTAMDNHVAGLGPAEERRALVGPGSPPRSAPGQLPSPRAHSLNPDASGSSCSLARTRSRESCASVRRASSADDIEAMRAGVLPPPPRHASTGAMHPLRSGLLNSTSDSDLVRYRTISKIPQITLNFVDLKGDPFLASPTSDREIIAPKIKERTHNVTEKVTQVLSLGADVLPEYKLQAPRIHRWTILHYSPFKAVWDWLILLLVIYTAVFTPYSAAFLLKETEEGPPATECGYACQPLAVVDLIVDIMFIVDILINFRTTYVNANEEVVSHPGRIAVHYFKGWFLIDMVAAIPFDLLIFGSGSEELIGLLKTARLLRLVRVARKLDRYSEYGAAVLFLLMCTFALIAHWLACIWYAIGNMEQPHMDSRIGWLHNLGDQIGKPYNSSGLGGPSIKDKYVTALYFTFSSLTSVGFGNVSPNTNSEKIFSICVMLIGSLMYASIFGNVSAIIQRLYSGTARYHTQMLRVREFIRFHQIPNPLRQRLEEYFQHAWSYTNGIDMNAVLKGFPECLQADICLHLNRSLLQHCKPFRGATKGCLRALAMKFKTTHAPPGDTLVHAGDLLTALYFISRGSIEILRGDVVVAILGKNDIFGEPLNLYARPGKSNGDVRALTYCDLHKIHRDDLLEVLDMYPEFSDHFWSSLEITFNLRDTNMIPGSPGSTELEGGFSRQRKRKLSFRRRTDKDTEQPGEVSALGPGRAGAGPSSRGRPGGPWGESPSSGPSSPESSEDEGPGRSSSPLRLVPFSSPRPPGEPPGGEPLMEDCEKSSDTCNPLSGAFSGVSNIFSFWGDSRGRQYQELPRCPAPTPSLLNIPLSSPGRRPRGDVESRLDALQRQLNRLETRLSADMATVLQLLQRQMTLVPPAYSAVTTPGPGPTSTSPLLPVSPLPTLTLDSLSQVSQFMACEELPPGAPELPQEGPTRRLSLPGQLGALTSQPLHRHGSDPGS
T1 sequence (Q8NET8 whole entry): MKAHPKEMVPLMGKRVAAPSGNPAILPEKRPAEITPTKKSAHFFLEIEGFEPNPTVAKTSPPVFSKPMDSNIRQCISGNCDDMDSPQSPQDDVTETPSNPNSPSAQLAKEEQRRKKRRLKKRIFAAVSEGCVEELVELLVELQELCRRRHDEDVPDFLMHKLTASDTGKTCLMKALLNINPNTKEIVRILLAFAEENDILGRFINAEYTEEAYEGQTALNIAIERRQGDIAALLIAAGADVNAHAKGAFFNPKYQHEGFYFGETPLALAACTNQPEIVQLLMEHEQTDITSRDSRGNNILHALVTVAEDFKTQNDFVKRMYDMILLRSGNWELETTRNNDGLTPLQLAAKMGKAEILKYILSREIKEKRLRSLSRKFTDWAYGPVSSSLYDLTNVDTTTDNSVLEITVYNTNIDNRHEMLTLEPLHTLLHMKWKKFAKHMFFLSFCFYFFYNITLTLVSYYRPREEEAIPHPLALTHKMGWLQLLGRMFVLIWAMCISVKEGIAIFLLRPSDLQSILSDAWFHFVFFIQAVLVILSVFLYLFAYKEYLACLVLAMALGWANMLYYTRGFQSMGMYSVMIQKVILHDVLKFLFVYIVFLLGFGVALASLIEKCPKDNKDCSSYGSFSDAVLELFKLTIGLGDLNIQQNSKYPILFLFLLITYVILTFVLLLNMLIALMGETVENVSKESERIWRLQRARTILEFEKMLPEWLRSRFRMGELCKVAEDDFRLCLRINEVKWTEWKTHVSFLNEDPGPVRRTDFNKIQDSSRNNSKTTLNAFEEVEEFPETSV

Row | Compound | IC50 (hTRPV3 [1]; [6]) [nM] | IC50 (hTRPV3 [1]; [7]) [nM] | IC50 (rat (r) TRPV3; [8]) [nM] | solubility at 40 min ([3]; Normal Ringer Solution) [µM] | half-life at 1 μM ([5]; read-out: LM T1/2 (min) (rat)) | IC50 (hTRPV3 [1]; [11]) [nM] | IC50 (human hERG channels; (PL), read-out: hERG (nM) (PL)) | half-life at 1 μM ([4]; read-out: LM T1/2 (min) human) [min] | half-life at 1 μM ([5]; read-out: LM T1/2 (min) rat) [min] | also measured
1 | NC(=O)c1cc(-c2ccccc2)ccc1N1CC[C@@H](Oc2ccc(C(F)(F)F)cn2)C1 [Compound 1-33, (R)-4-(3-(5-(trifluoromethyl)pyridin-2-yloxy)pyrrolidin-1-yl)biphenyl-3-carboxamide] | 100 to 1000 | 139 | 283 | – | – | – | – | – | – | IC50 (rat (r) TRPV3; [9]): 776 nM; hTRPV3 HAMA IC50 (nM) (5 min) (hTRPV3 [2]): no fit (5 min)
2 | NC(=O)c1cc(C(F)(F)F)ccc1N1CC[C@H](Oc2ccc(C(F)(F)F)cn2)C1 [Compound 1-58, (S)-5-(trifluoromethyl)-2-(3-(5-(trifluoromethyl)pyridin-2-yloxy)pyrrolidin-1-yl)benzamide] | – | – | – | > 11.3 | > 60 | – | – | – | – | IC50 (hTRPV3 [1]; hTRPV3 (nM) (Phase 1)): 1250 nM and 1520 nM and > 3200 nM; IC50 (hTRPV3 [1]; hTRPV3 Patch P2 Inwd (nM)): 100 to 1000 nM; IC50 (hTRPV3 [1]; read-out: hTRPV3 (nM) (Phase 1)): 1040 nM; IC50 (hTRPV3 [1]; read-out: hTRPV3 (nM) (Phase 2)): 241 nM; half-life at 1 μM ([4]; read-out: LM T1/2 (min) (human)): > 60 min; hTRPV3 HAMA IC50 (nM) (5 min) (hTRPV3 [2]): no fit (5 min)
3 | NC(=O)c1cc(-c2ccc(F)cc2)ccc1N1CC[C@H](Oc2ccc(C(F)(F)F)cn2)C1 [Compound 1-65, (S)-4′-fluoro-4-(3-(5-(trifluoromethyl)pyridin-2-yloxy)pyrrolidin-1-yl)biphenyl-3-carboxamide] | 100 to 1000 | 475 | 1140 | – | 77.3 | – | – | – | – | IC50 (hTRPV3 [1]; Phase 2 current, inward, whole-cell patch clamp, read-out: hTRPV3 Patch P2 Inwd): 100 to 1000 nM; IC50 (hTRPV3 [1]; [10]): 417 nM; IC50 (rat (r) TRPV3; [9]): 3250 nM; Solubility Ringer (nM) ([3]; Normal Ringer Solution, room temperature): BLQ; hTRPV3 HAMA IC50 (nM) (5 min) (hTRPV3 [2]): no fit (5 min)
4 | OCc1cc(C(O)c2ccccc2Cl)ccc1N1CC[C@H](Oc2ncccc2Cl)C1 (stereo partly drawn) [Compound 1-262, (2-chlorophenyl)(4-((S)-3-(3-chloropyridin-2-yloxy)pyrrolidin-1-yl)-3-(hydroxymethyl)phenyl)methanol] | 10 to 100 | 23.7 | ~20 | – | 14.6 | – | – | – | – | IC50 (rat (r) TRPV3; [9]): 21.3 nM; solubility at 40 min [3]: ~4.7 µM (≈ 2.09 µg/mL)
5 | OCc1cc([C@@H](O)c2ccccc2Cl)ccc1N1CC[C@H](Oc2ncccc2F)C1 [Compound 1-321, (2-chlorophenyl)(4-((S)-3-(3-fluoropyridin-2-yloxy)pyrrolidin-1-yl)-3-(hydroxymethyl)phenyl)methanol] | 10 to 100 | 12.2 | 5.37 | > 9.8 | 16.9 | – | – | – | – | hTRPV3 (nM) (Phase 2) (hTRPV3 [1]; Phase 2 current): Incomplete Block; IC50 (hTRPV3 [1]; [10]): ~30 nM and ~44 nM; IC50 (rat (r) TRPV3; rTRPV3 (nM) (Phase 2), Phase 2 current): ~15.7 nM; IC50 (human hERG channels; (PL), read-out: hERG): ~3730 nM
6 | CC(C)c1ccccc1-c1ccc(C2CCN(C(=O)c3cc(Cl)ccn3)C2)c(CO)c1 (stereo not drawn) [Compound 2-49, (4-chloropyridin-2-yl)(3-(3-(hydroxymethyl)-2′-isopropylbiphenyl-4-yl)pyrrolidin-1-yl)methanone] | 10 to 100 | – | – | > 12.8 | – | 25.7 | 6970 | 12.2 | 20.6 | –
7 | CCc1ccccc1-c1ccc(C2CCN(C(=O)c3ncccc3Cl)C2)c(CO)c1 (stereo not drawn) [Compound 2-52, (3-chloropyridin-2-yl)(3-(2′-ethyl-3-(hydroxymethyl)biphenyl-4-yl)pyrrolidin-1-yl) methanone] | 10 to 100 | – | – | > 17.8 | – | 67.3 | – | 14.4 | 9.2 | –
8 | CCc1ccccc1-c1ccc(C2CCN(C(=O)c3cccc(Cl)n3)C2)c(CO)c1 (stereo not drawn) [Compound 2-53, (6-chloropyridin-2-yl)(3-(2′-ethyl-3-(hydroxymethyl)biphenyl-4-yl)pyrrolidin-1-yl) methanone] | < 10 | – | – | ~7.7 (≈ 3.24 µg/mL) | – | 8.39 | – | 24.9 | 12.3 | –
9 | O=C(c1ccc(Cl)cn1)N1CCC(c2ccc(-c3ccccc3C3CC3)cc2CO)C1 (stereo not drawn) [Compound 2-56] | < 10 | – | – | ~5.1 (≈ 2.21 µg/mL) | – | 2.04 | 7290 | 24.6 | – | –
10 | O=C(c1ccc(C(F)(F)F)cn1)N1CCC(c2ccc(-c3ccccc3C3CC3)cc2CO)C1 (stereo not drawn) [Compound 2-58, (3-(2′-cyclopropyl-3-(hydroxymethyl)biphenyl-4-yl)pyrrolidin-1-yl)(5-(trifluoromethyl)pyridin-2-yl)methanone] | 10 to 100 | – | – | ~5.2 (≈ 2.43 µg/mL) | – | 27.3 | 15000 | 54.6 | 47.9 | –
11 | O=C(c1ccc(F)cn1)N1CCC(c2ccc(-c3ccccc3C3CC3)cc2CO)C1 (stereo not drawn) [Compound 2-72, (3-(2′-cyclopropyl-3-(hydroxymethyl)biphenyl-4-yl)pyrrolidin-1-yl)(5-fluoropyridin-2-yl)methanone] | – | – | – | ~25.5 (≈ 10.6 µg/mL) | – | – | 8460 | 17.5 | 31.3 | IC50 (human hERG channels; (M), read-out: hERG): 9240 nM
